In ChEMBL document CHEMBL1140887, “Synthesis of novel 1,4-benzoxazin-3-one derivatives as inhibitors against tyrosine kinases” (Bioorg Med Chem, 2009):

Tests used:
[1] = molecular target: T1, Vascular endothelial growth factor receptor 2 (Homo sapiens, UniProt P35968); test: Inhibition of KDR expressed in baculovirus system at 4 ug/ml by ELISA
[2] = molecular target: Tyrosine-protein kinase ABL1 (Homo sapiens, UniProt P00519); test: Inhibition of ABL expressed in baculovirus system by ELISA
[3] = molecular target: T1, Vascular endothelial growth factor receptor 2; test: Inhibition of KDR expressed in baculovirus system by ELISA

T1 sequence (P35968 whole entry): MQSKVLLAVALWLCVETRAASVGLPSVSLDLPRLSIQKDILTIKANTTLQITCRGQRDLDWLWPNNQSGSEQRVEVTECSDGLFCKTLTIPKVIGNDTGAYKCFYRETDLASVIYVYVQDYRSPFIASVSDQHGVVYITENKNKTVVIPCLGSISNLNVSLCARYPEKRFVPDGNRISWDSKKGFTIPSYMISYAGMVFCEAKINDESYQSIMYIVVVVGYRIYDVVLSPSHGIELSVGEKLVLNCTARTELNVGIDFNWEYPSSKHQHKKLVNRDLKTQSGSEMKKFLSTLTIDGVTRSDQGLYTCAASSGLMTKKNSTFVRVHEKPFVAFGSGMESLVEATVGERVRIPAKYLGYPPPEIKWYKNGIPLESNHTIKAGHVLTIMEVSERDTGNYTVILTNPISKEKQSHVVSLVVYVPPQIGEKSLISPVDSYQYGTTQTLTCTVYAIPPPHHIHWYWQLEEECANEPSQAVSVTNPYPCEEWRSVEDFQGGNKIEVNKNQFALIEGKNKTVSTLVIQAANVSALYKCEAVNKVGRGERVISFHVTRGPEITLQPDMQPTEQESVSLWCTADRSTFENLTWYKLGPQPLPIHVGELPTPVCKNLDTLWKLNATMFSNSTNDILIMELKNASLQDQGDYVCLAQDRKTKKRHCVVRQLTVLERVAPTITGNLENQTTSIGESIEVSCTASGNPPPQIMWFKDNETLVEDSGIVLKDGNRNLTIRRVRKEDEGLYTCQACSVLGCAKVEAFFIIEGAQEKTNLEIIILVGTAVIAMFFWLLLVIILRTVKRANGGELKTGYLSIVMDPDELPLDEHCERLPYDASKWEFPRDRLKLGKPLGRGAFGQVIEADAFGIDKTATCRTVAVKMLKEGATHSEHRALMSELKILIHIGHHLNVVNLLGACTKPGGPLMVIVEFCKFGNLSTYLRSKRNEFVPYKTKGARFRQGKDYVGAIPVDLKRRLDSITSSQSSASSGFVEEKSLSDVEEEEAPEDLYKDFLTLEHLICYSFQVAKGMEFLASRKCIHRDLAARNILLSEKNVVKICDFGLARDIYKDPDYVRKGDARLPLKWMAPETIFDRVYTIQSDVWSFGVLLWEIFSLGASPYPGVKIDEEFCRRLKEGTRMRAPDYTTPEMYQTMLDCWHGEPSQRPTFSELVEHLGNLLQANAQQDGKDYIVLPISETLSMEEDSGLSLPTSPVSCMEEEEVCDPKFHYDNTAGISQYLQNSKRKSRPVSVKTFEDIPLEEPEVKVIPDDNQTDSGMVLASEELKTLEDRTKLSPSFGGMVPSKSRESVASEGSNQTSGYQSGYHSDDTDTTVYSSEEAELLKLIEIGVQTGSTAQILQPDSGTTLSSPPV
Chain of Tyrosine-protein kinase ABL1 (P00519 whole entry): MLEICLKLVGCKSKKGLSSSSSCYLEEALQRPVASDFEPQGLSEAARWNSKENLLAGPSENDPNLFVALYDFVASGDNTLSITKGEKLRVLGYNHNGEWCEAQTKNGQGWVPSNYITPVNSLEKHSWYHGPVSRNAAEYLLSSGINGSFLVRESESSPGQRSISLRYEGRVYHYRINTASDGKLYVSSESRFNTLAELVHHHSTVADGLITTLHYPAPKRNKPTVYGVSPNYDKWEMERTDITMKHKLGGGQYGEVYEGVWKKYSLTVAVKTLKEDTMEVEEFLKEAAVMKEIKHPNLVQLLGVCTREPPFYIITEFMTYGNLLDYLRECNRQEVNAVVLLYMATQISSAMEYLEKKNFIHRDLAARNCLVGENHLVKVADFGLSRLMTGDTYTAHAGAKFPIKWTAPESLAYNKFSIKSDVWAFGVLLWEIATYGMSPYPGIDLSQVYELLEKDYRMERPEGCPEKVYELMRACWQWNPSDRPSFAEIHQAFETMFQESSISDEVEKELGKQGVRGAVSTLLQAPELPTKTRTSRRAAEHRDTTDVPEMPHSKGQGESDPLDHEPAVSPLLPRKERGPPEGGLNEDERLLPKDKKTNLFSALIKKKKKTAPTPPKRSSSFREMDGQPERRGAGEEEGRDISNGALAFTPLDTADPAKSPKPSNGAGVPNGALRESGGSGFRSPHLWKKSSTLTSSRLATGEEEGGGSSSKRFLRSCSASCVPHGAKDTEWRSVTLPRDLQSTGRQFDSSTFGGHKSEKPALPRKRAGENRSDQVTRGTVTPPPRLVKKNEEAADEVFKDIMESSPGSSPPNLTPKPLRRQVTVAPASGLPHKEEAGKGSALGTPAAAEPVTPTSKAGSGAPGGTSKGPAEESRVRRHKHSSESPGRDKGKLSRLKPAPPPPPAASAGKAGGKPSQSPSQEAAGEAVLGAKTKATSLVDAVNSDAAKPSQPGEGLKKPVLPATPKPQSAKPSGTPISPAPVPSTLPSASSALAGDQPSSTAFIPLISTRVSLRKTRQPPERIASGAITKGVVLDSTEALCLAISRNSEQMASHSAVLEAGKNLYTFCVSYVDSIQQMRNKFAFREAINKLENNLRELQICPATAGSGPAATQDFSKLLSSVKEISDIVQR

SMILES	inhibition [1] [%]	IC50 [2] [nM]	IC50 [3] [nM]
O=C1Nc2ccccc2O/C1=C\c1ccc(/C=C/C(=O)N2CCN(CCO)CC2)o1	76.7	–	–
CN(C)CCNC(=O)/C=C/c1ccc(/C=C2\Oc3ccccc3N(C)C2=O)s1	83.9	820	–
O=C(/C=C/c1ccc(/C=C2\Oc3ccccc3NC2=O)s1)NCc1ccccn1	–	> 991	–
CN1C(=O)/C(=C/c2ccc(/C=C/C(=O)NCc3cccnc3)s2)Oc2ccccc21	76.7	1900	1480
O=C(/C=C/c1ccc(/C=C2\Oc3ccccc3NC2=O)s1)Nc1ccc(N2CCOCC2)cc1	–	290	–
CN(C)CCNC(=O)/C=C/c1csc(/C=C2\Oc3ccccc3NC2=O)c1	–	> 1040	–

The next lines start with the values.

inhibition [1] [%]	IC50 [2] [nM]	IC50 [3] [nM]	SMILES
88.3	–	–	CN1C(=O)/C(=C/c2ccc(/C=C/C(=O)N3CCN(CCO)CC3)s2)Oc2ccccc21
79.2	–	–	CN1C(=O)/C(=C/c2ccc(/C=C/C(=O)N3CCCC3)s2)Oc2ccccc21
70.8	–	–	CN(C)CCNC(=O)/C=C/c1cccc(/C=C2\Oc3ccccc3NC2=O)c1
77.1	1760	–	CN1C(=O)/C(=C/c2ccc(/C=C/C(=O)NCc3ccncc3)s2)Oc2ccccc21
79.9	–	–	CN1C(=O)/C(=C/c2cccc(/C=C/C(=O)Nc3ccc(N4CCOCC4)cc3)c2)Oc2ccccc21
–	> 1010	–	O=C(/C=C/c1cccc(/C=C2\Oc3ccccc3NC2=O)c1)NCc1ccccn1
–	> 1140	–	O=C1Nc2ccccc2O/C1=C\c1ccc(/C=C/C(=O)N2CCCC2)o1
–	> 1090	–	O=C1Nc2ccccc2O/C1=C\c1cc(/C=C/C(=O)N2CCCC2)cs1
